Where “and” joins values, the source holds several entries; their conditions need not be identical. Equal entries are not always repeated. Where two headings read alike, the source gives them in different places. Where a SMILES comes first, the peptide text is derived from it. [ ]: non-standard residue; d: D form. Arg(Me) = CNC(=N)NCCC[C@H](N)C(=O)O; Hyp = O=C(O)[C@@H]1C[C@@H](O)CN1; azaGly = NNC(=O)O
What was measured:
CYP1A2 = target: T1, CYP1A2 (Homo sapiens, UniProt P05177); assay: Inhibition of recombinant CYP1A2; assay type: in vitro ADME
T1 sequence (P05177 1-516): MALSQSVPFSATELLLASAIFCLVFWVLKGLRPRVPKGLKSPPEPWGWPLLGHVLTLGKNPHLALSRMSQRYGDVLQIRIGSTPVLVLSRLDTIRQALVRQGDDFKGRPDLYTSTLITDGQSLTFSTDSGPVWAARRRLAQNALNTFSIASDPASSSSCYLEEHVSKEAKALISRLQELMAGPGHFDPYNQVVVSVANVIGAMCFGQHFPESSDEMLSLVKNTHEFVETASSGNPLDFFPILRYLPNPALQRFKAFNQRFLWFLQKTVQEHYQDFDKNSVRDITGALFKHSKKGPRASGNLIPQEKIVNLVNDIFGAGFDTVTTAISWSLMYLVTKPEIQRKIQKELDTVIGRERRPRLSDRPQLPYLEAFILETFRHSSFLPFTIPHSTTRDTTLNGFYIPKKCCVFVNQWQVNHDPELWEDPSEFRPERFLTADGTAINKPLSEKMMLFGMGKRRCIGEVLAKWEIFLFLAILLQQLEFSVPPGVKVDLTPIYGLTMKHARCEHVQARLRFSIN

serum LH and PSA = assay: 1-month depot pharmacodynamics, prostate cancer patients; assay type: in vivo, human
Protocol: Nine patients with prostate cancer were enrolled in another study, three in each dose group (6, 12, and 24 mg). Patients received API-MA as a single 1-month depot injection that was intended to initiate both a high-burst release of API-MA and rapid stimulation of hypothalamic-pituitary-gonadal axis. Overall, 4 of 9 patients received concomitant GnRH therapy. Assessments of pharmacodynamics included LH concentrations and serum PSA concentrations. Results were grouped based on patients who were or were not receiving concomitant GnRH therapy.

human KISS1R [1] = target: T2, human KISS1R (Homo sapiens, UniProt Q969F8); assay: Intracellular Ca2+ mobilization (fluorometric imaging plate reader), human KISS1R; assay type: cell-based; design: expressed in transfected cells; host or cells: Chinese hamster ovary dihydrofolate reductase negative cells
T2 sequence (Q969F8 whole entry): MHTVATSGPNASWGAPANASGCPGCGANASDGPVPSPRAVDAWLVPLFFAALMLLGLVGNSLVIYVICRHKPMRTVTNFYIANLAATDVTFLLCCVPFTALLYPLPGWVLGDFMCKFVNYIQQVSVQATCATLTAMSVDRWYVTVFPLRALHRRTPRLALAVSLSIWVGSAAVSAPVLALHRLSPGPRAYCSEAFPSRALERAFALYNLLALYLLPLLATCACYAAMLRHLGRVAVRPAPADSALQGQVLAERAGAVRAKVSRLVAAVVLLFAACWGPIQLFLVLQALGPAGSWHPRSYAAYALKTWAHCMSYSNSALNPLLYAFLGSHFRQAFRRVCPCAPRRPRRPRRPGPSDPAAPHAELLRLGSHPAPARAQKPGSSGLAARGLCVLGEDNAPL
Protocol: The effects of API-MA on intracellular Ca^2+ mobilization in KISS1R-expressing recombinant cells were evaluated by performing the fluorometric imaging plate reader assay.

[2] = 1-month depot PK, prostate cancer patients; assay type: in vivo, human; settings: for AUC(0-t) / Cmax / Tmax: male, human, plasma; for AUC(0-t): sc; for AUC(0-t) / Cmax / Tmax / Tlqc: prostate cancer patients; for AUC(0-t) / Cmax / Tlqc: geometric mean; for Tmax: read-out: Tmax (median)
Protocol: Another study enrolled prostate cancer patients who had completed their primary treatment for prostate cancer at least 6 months prior to screening and were either on GnRH therapy or were potential future candidates for GnRH therapy. Nine patients were enrolled, three in each dose group (6, 12, and 24 mg). All were white men. Patients received API-MA as a single 1-month depot SC injection into the abdomen that was intended to initiate both a high-burst release of API-MA and rapid stimulation of hypothalamic-pituitary-gonadal-axis, and was expected to suppress testosterone. Overall, 4 of 9 patients received concomitant GnRH therapy.

CYP3A4 = CYP3A4 (Homo sapiens, UniProt P08684); assay: Inhibition of recombinant CYP3A4; assay type: in vitro ADME
Sequence of CYP3A4 (P08684 whole entry): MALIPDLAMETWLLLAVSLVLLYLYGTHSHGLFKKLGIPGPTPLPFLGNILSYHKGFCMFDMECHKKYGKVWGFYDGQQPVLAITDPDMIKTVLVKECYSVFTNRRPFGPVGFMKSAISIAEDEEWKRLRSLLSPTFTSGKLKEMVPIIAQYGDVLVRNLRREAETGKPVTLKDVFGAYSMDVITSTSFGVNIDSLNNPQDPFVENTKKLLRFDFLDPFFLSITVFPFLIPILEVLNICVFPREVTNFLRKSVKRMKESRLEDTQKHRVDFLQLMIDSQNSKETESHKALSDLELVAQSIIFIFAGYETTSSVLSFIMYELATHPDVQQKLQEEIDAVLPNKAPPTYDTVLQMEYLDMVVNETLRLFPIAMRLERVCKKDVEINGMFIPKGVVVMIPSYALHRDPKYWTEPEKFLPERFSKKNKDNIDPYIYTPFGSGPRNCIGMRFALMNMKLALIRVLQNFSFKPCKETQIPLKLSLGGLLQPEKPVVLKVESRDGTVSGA

human KISS1R [3] = target: T2, human KISS1R; assay: Competitive binding assay, human KISS1R; design: expressed in transfected cells
Text: The binding affinity of API-MA to membrane fractions of KISS1R-expressing recombinant cells was examined in a competitive binding assay.

CYP2C9 = CYP2C9 (Homo sapiens, UniProt P11712); assay: Inhibition of recombinant CYP2C9; assay type: in vitro ADME
Sequence of CYP2C9 (P11712 whole entry): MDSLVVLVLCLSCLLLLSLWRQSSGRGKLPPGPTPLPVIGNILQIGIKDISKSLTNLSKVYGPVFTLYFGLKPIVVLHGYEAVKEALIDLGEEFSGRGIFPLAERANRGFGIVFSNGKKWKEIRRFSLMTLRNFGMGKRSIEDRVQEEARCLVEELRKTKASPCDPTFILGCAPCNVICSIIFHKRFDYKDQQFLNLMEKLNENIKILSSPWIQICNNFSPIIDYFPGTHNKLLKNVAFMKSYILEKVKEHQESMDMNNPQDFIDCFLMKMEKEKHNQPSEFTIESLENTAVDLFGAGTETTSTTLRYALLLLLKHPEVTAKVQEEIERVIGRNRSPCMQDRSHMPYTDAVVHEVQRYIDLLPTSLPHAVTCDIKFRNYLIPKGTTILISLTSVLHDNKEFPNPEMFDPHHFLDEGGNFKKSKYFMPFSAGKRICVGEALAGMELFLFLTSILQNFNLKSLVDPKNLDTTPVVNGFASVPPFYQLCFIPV

Compound: CC(=O)O.CNC(=N)NCCC[C@H](NC(=O)[C@H](CC(C)C)NC(=O)NNC(=O)[C@H](Cc1ccccc1)NC(=O)[C@@H](NC(=O)[C@H](CC(N)=O)NC(=O)[C@@H]1C[C@@H](O)CN1C(=O)[C@@H](Cc1ccc(O)cc1)NC(C)=O)[C@@H](C)O)C(=O)N[C@@H](Cc1c[nH]c2ccccc12)C(N)=O [API-MA, 2-(N-Acetyl-D-tyrosyl-trans-4-hydroxy-L-prolyl-Lasparaginyl-L-threonyl-L-phenylalanyl)-hydrazinocarbonyl-L-leucyl-Nω-methyl-L-arginyl-L-tryptophanamide monoacetate] (Ac-[dY][Hyp]NTF[azaGly]L[Arg(Me)]W-NH2)
- IC50 (CYP1A2): > 7.78 nM
- Greatest percent decrease from baseline in PSA, individual patients (serum LH and PSA; month 1, day 29, 6 mg dose group): 8% and 19%
- Greatest percent decrease from baseline in PSA, individual patients (serum LH and PSA; month 1, day 29, 12 mg dose group): 25% and 62%
- Greatest percent decrease from baseline in PSA, individual patients (serum LH and PSA; month 1, day 29, 24 mg dose group): 88% and 74% and 79%
- Greatest reduction in PSA (serum LH and PSA; month 2 day 29, a patient in the 24 mg dose group): 91%
- EC50 (human KISS1R [1]): 0.266 nM
- Ratio of EC50 of API-MA to kisspeptin (45-54) (human KISS1R [1]; human KISS1R): 0.85
- Detectability of API-MA in plasma ([2]; 1-month depot 6, 12 or 24 mg, all cases): not detectable by 8 weeks postdose
- AUC(0-24) as share of AUC(0-tlqc) ([2]; 1-month depot 6, 12 or 24 mg, burst phase): over 60%
- AUC(0-t) ([2]; 6 mg/month, 1-month depot SC 6 mg/month, read-out: AUC (0-24) (converted)): 79.6 ng·h/mL
- AUC(0-t) ([2]; 6 mg/month, 1-month depot SC 6 mg/month, read-out: AUC (0-29 d) (converted)): 104 ng·h/mL
- AUC(0-t) ([2]; 6 mg/month, 1-month depot SC 6 mg/month, read-out: AUC (0-tlqc) (converted)): 119 ng·h/mL
- AUC(0-t) ([2]; 12 mg/month, 1-month depot SC 12 mg/month, read-out: AUC (0-24) (converted)): 119 ng·h/mL
- AUC(0-t) ([2]; 12 mg/month, 1-month depot SC 12 mg/month, read-out: AUC (0-29 d) (converted)): 138 ng·h/mL
- AUC(0-t) ([2]; 12 mg/month, 1-month depot SC 12 mg/month, read-out: AUC (0-tlqc) (converted)): 158 ng·h/mL
- AUC(0-t) ([2]; 24 mg/month, 1-month depot SC 24 mg/month, read-out: AUC (0-24) (converted)): 179 ng·h/mL
- AUC(0-t) ([2]; 24 mg/month, 1-month depot SC 24 mg/month, read-out: AUC (0-29 d) (converted)): 209 ng·h/mL
- AUC(0-t) ([2]; 24 mg/month, 1-month depot SC 24 mg/month, read-out: AUC (0-tlqc) (converted)): 239 ng·h/mL
- Cmax ([2]; 1-month depot SC 6 mg/month): 16.5 ng/mL
- Tmax ([2]; 1-month depot SC 6 mg/month): 2 h
- Cmax ([2]; 1-month depot SC 12 mg/month): 14.4 ng/mL
- Tmax ([2]; 1-month depot SC 12 mg/month): 2.05 h
- Cmax ([2]; 1-month depot SC 24 mg/month): 25.5 ng/mL
- Tmax ([2]; 1-month depot SC 24 mg/month): 2.05 h
- Tlqc ([2]; 1-month depot SC 6 mg/month): 42.9 h
- Tlqc ([2]; 1-month depot SC 12 mg/month): 41.5 h
- Tlqc ([2]; 1-month depot SC 24 mg/month): 47.2 h
- IC50 (CYP3A4): > 7.78 nM
- IC50 (human KISS1R [3]): 0.23 nM
- IC50 (CYP2C9): > 7.78 nM
